According to US12077503B2, “Substituted cyclic amides and their use as herbicides” (FMC CORPORATION, priority 2015, dated 2024):

Legend:
Format in all cases: in vivo
[1] = test system: Kochia (Kochia scoparia); test: Test A preemergence; conditions: Bassia scoparia, pre-emergence, 240 h, 0 to 100 scale where 0 is no effect and 100 is complete control, read-out: Kochia plant response rating
Outline: (§1)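 Each rating is a visual injury score from 0 to 100 given about 10 d after treatment, judged against untreated controls kept alongside in the greenhouse. In loam soil–sand blend, seeds got a preemergence directed soil spray, while postemergence plants were 2 to 10 cm tall at spraying.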

[2] = test system: barnyardgrass (Echinochloa crus-galli); test: Test A preemergence; conditions: Echinochloa crus-galli, pre-emergence, 240 h, 0 to 100 scale where 0 is no effect and 100 is complete control, read-out: Barnyardgrass plant response rating
Outline: as §1

[3] = test system: giant foxtail (Setaria faberii); test: Test A preemergence; conditions: Setaria faberi, pre-emergence, 240 h, 0 to 100 scale where 0 is no effect and 100 is complete control, read-out: Foxtail, Giant plant response rating
Outline: as §1

[4] = test system: pigweed (Amaranthus retroflexus); test: Test A preemergence; conditions: Amaranthus retroflexus, pre-emergence, 240 h, 0 to 100 scale where 0 is no effect and 100 is complete control, read-out: Pigweed plant response rating
[5] = test system: ragweed (common ragweed, Ambrosia elatior); test: Test A preemergence; conditions: Ambrosia artemisiifolia, pre-emergence, 240 h, 0 to 100 scale where 0 is no effect and 100 is complete control, read-out: Ragweed plant response rating
Outline: as §1

[6] = test system: ryegrass, Italian (Italian ryegrass, Lolium multiflorum); test: Test A preemergence; conditions: Lolium multiflorum, pre-emergence, 240 h, 0 to 100 scale where 0 is no effect and 100 is complete control, read-out: Ryegrass, Italian plant response rating
Outline: as §1

[7] = test system: Galium (catchweed bedstraw, Galium aparine); test: Test A postemergence; conditions: Galium, post-emergence, 240 h
Outline: as §1

[8] = test system: Kochia (Kochia scoparia); test: Test A postemergence; conditions: Bassia scoparia, post-emergence, 240 h
Outline: as §1

[9] = test system: barnyardgrass (Echinochloa crus-galli); test: Test A postemergence; conditions: Echinochloa crus-galli, post-emergence, 240 h
Outline: as §1

[10] = test system: blackgrass (Alopecurus myosuroides); test: Test A postemergence; conditions: Alopecurus myosuroides, post-emergence, 240 h
Outline: as §1

[11] = test system: corn (Zea mays); test: Test A postemergence; conditions: Zea mays, post-emergence, 240 h
Outline: as §1

[12] = test system: giant foxtail (Setaria faberii); test: Test A postemergence; conditions: Setaria faberi, post-emergence, 240 h
Outline: as §1

[13] = test system: pigweed (Amaranthus retroflexus); test: Test A postemergence; conditions: Amaranthus retroflexus, post-emergence, 240 h
Outline: as §1

[14] = test system: ragweed (common ragweed, Ambrosia elatior); test: Test A postemergence; conditions: Ambrosia artemisiifolia, post-emergence, 240 h
Outline: as §1

[15] = test system: ryegrass, Italian (Italian ryegrass, Lolium multiflorum); test: Test A postemergence; conditions: Lolium multiflorum, post-emergence, 240 h
Outline: as §1

[16] = test system: wheat (Triticum aestivum); test: Test A postemergence; conditions: Triticum aestivum, post-emergence, 240 h
Outline: as §1

[17] = test system: barnyardgrass (Echinochloa crus-galli); test: Test B flooded paddy test; conditions: Echinochloa crus-galli, 250 g ai/ha, Flood; 0 to 100 scale where 0 is no effect and 100 is complete control; read-out: Barnyardgrass plant response rating
Outline: (§2)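 Compound goes directly into floodwater once pots are flooded 3 cm above soil, targeting plants at two leaves; the water depth is then held for the test duration. Plants sit 13–15 d in a greenhouse and are rated visually, 100 denoting complete control.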

[18] = test system: ducksalad (Heteranthera limosa); test: Test B flooded paddy test; conditions: Heteranthera limosa, 250 g ai/ha, Flood; 0 to 100 scale where 0 is no effect and 100 is complete control; read-out: Ducksalad plant response rating
Outline: as §2

[19] = test system: rice (Oryra sativa); test: Test B flooded paddy test; conditions: Oryza sativa, 250 g ai/ha, Flood; 0 to 100 scale where 0 is no effect and 100 is complete control; read-out: Rice plant response rating
Outline: as §2

[20] = test system: sedge, umbrella (small-flower umbrella sedge, Cyperus difformis); test: Test B flooded paddy test; conditions: Cyperus difformis, 250 g ai/ha, Flood; 0 to 100 scale where 0 is no effect and 100 is complete control; read-out: Sedge, Umbrella plant response rating
Outline: as §2

[21] = 125 g ai/ha, preemergence, approx. 10 d

O=C1NC[C@H](c2ccc(C(F)(F)F)cn2)[C@H]1C(=O)Nc1cccc(F)c1F [Compound 1104]
pest or weed control at 31 g/ha ([1]; 31 g ai/ha, Preemergence): 0% | pest or weed control at 125 g/ha [1, 21]: 0% | pest or weed control at 31 g/ha ([2]; 31 g ai/ha, Preemergence): 0% | pest or weed control at 125 g/ha [2, 21]: 50% | pest or weed control at 31 g/ha ([3]; 31 g ai/ha, Preemergence): 0% | pest or weed control at 125 g/ha [3, 21]: 70% | pest or weed control at 31 g/ha ([4]; 31 g ai/ha, Preemergence): 0% | pest or weed control at 125 g/ha [4, 21]: 0% | pest or weed control at 31 g/ha ([5]; 31 g ai/ha, Preemergence): 0% | pest or weed control at 125 g/ha [5, 21]: 0% | pest or weed control at 31 g/ha ([6]; 31 g ai/ha, Preemergence): 0% | pest or weed control at 125 g/ha [6, 21]: 0% | pest or weed control at 125 g/ha ([7]; 125 g ai/ha, postemergence, visual injury on 0 to 100 scale (0 no effect, 100 complete control), approx. 10 d, read-out: Galium plant response rating): 0% | pest or weed control at 31 g/ha ([7]; Postemergence, 31 g ai/ha, visual injury after approx. 10 d, 0 to 100 scale, 0 no effect, 100 complete control, read-out: Plant response rating, Galium): 0% | pest or weed control at 125 g/ha ([8]; 125 g ai/ha, postemergence, visual injury on 0 to 100 scale (0 no effect, 100 complete control), approx. 10 d, read-out: Kochia plant response rating): 0% | pest or weed control at 31 g/ha ([8]; Postemergence, 31 g ai/ha, visual injury after approx. 10 d, 0 to 100 scale, 0 no effect, 100 complete control, read-out: Plant response rating, Kochia): 0% | pest or weed control at 125 g/ha ([9]; 125 g ai/ha, postemergence, visual injury on 0 to 100 scale (0 no effect, 100 complete control), approx. 10 d, read-out: Barnyardgrass plant response rating): 30% | pest or weed control at 31 g/ha ([9]; Postemergence, 31 g ai/ha, visual injury after approx. 10 d, 0 to 100 scale, 0 no effect, 100 complete control, read-out: Plant response rating, Barnyardgrass): 0% | pest or weed control at 125 g/ha ([10]; 125 g ai/ha, postemergence, visual injury on 0 to 100 scale (0 no effect, 100 complete control), approx. 10 d, read-out: Blackgrass plant response rating): 0% | pest or weed control at 31 g/ha ([10]; Postemergence, 31 g ai/ha, visual injury after approx. 10 d, 0 to 100 scale, 0 no effect, 100 complete control, read-out: Plant response rating, Blackgrass): 0% | plant injury at 125 g/ha ([11]; 125 g ai/ha, postemergence, visual injury on 0 to 100 scale (0 no effect, 100 complete control), approx. 10 d, read-out: Corn plant response rating): 0% | Corn plant response rating (crop injury, 0 = no effect, 100 = complete kill) at 31 g/ha ([11]; Postemergence, 31 g ai/ha, visual injury after approx. 10 d, 0 to 100 scale, 0 no effect, 100 complete control): 0% | pest or weed control at 125 g/ha ([12]; 125 g ai/ha, postemergence, visual injury on 0 to 100 scale (0 no effect, 100 complete control), approx. 10 d, read-out: Foxtail, Giant plant response rating): 0% | pest or weed control at 31 g/ha ([12]; Postemergence, 31 g ai/ha, visual injury after approx. 10 d, 0 to 100 scale, 0 no effect, 100 complete control, read-out: Plant response rating, Foxtail, Giant): 0% | pest or weed control at 125 g/ha ([13]; 125 g ai/ha, postemergence, visual injury on 0 to 100 scale (0 no effect, 100 complete control), approx. 10 d, read-out: Pigweed plant response rating): 0% | pest or weed control at 31 g/ha ([13]; Postemergence, 31 g ai/ha, visual injury after approx. 10 d, 0 to 100 scale, 0 no effect, 100 complete control, read-out: Plant response rating, Pigweed): 0% | pest or weed control at 125 g/ha ([14]; 125 g ai/ha, postemergence, visual injury on 0 to 100 scale (0 no effect, 100 complete control), approx. 10 d, read-out: Ragweed plant response rating): 0% | pest or weed control at 31 g/ha ([14]; Postemergence, 31 g ai/ha, visual injury after approx. 10 d, 0 to 100 scale, 0 no effect, 100 complete control, read-out: Plant response rating, Ragweed): 0% | pest or weed control at 125 g/ha ([15]; 125 g ai/ha, postemergence, visual injury on 0 to 100 scale (0 no effect, 100 complete control), approx. 10 d, read-out: Ryegrass, Italian plant response rating): 0% | pest or weed control at 31 g/ha ([15]; Postemergence, 31 g ai/ha, visual injury after approx. 10 d, 0 to 100 scale, 0 no effect, 100 complete control, read-out: Plant response rating, Ryegrass, Italian): 0% | plant injury at 125 g/ha ([16]; 125 g ai/ha, postemergence, visual injury on 0 to 100 scale (0 no effect, 100 complete control), approx. 10 d, read-out: Wheat plant response rating): 0% | plant injury at 31 g/ha ([16]; Postemergence, 31 g ai/ha, visual injury after approx. 10 d, 0 to 100 scale, 0 no effect, 100 complete control, read-out: Plant response rating, Wheat): 0% | pest or weed control at 250 g/ha [17]: 40% | pest or weed control at 250 g/ha [18]: 100% | pest or weed control at 250 g/ha [19]: 20% | pest or weed control at 250 g/ha [20]: 0%
